Measurements: patent US20070259841A1, “Combinations for the treatment of rheumatoid arthritis” (CombinatoRx, Incorporated, priority 2002, published 2007)

Experiments:
[1] = 200 mg/day orally; cited from earlier work
[2] = test system: TNF-α secretion; experiment: TNF-α ELISA: TNF-alpha suppression in PMA/ionomycin-induced white blood cells; settings: for TNF-α inhibition achievable by steroid alone: even at very high concentrations

Question: With `CC(=O)N1CCN(c2ccc(OCC3COC(Cn4ccnc4)(c4ccc(Cl)cc4Cl)O3)cc2)CC1` (stereo not shown) [ketoconazole] as the compound, how does the serum concentration [1] read?
Answer: about 3.2 micrograms

Question: With `Clc1ccccc1C(c1ccccc1)(c1ccccc1)n1ccnc1` [Clotrimazole, clotrimazole] as the compound, how does the “TNF-alpha Suppression” value ([2]; Diflorasone 0.0 nM, Clotrimazole 0.008 μM) read?
Answer: 4.92%

Question: And the “TNF-alpha Suppression” value ([2]; Diflorasone 0.0 nM, Clotrimazole 0.014 μM)?
Answer: 5.86%

Question: What about the “TNF-alpha Suppression” value ([2]; Diflorasone 0.0 nM, Clotrimazole 0.031 μM) of the same compound?
Answer: 12.47%

Question: What about the “TNF-alpha Suppression” value ([2]; Diflorasone 0.0 nM, Clotrimazole 0.063 μM) of the same compound?
Answer: 11.43%

Question: What about the “TNF-alpha Suppression” value ([2]; Diflorasone 0.0 nM, Clotrimazole 0.125 μM) of the same compound?
Answer: 18.40%

Question: What about the “TNF-alpha Suppression” value ([2]; Diflorasone 0.0 nM, Clotrimazole 0.250 μM) of the same compound?
Answer: 14.29%

Question: And the “TNF-alpha Suppression” value ([2]; Diflorasone 0.0 nM, Clotrimazole 0.500 μM)?
Answer: 20.07%

Question: And the “TNF-alpha Suppression” value ([2]; Diflorasone 0.0 nM, Clotrimazole 1.000 μM)?
Answer: 19.90%

Question: And the “TNF-alpha Suppression” value ([2]; Diflorasone 0.0 nM, Clotrimazole 2.000 μM)?
Answer: 30.02%

Question: For `C[C@@H]1C[C@H]2[C@@H]3CCC4=CC(=O)C=C[C@]4(C)[C@@]3(F)[C@@H](O)C[C@]2(C)[C@@]1(O)C(=O)CO` [Dexamethasone, dexamethasone], which “TNF-alpha Suppression” value ([2]; Dexamethasone 1.0 nM, Econazole 0.000 μM) is on record?
Answer: 23.96%

Question: And the “TNF-alpha Suppression” value ([2]; Dexamethasone 2.0 nM, Econazole 0.000 μM)?
Answer: 33.10%

Question: And the “TNF-alpha Suppression” value ([2]; Dexamethasone 4.0 nM, Econazole 0.000 μM)?
Answer: 36.87%

Question: What about the “TNF-alpha Suppression” value ([2]; Dexamethasone 8.0 nM, Econazole 0.000 μM) of the same compound?
Answer: 40.33%

Question: What about the “TNF-alpha Suppression” value ([2]; Dexamethasone 16.0 nM, Econazole 0.000 μM) of the same compound?
Answer: 44.12%

Question: What about the “TNF-alpha Suppression” value ([2]; Dexamethasone 32.0 nM, Econazole 0.000 μM) of the same compound?
Answer: 51.26%

Question: And the “TNF-alpha Suppression” value ([2]; Dexamethasone 64.0 nM, Econazole 0.000 μM)?
Answer: 54.35%

Question: What about the “TNF-alpha Suppression” value ([2]; Dexamethasone 127.0 nM, Econazole 0.000 μM) of the same compound?
Answer: 52.97%

Question: What about the “TNF-alpha Suppression” value ([2]; Dexamethasone 255.0 nM, Econazole 0.000 μM) of the same compound?
Answer: 59.93%

Question: What about the “TNF-α inhibition achievable by steroid alone” value ([2]; dexamethasone alone) of the same compound?
Answer: 60%

Question: And the “suppression of TNF-α secretion” value ([2]; single agent concentration of 4 nM, PMA and ionomycin stimulated PBMCs)?
Answer: 40%

Question: Which “TNF-alpha Suppression” value ([2]; Dexamethasone 0.0 nM, Econazole 0.035 μM) does the source give for `Clc1ccc(COC(Cn2ccnc2)c2ccc(Cl)cc2Cl)cc1` (stereo not shown) [Econazole, econazole] here?
Answer: 13.30%

Question: And the “TNF-alpha Suppression” value ([2]; Dexamethasone 0.0 nM, Econazole 0.070 μM)?
Answer: 20.05%

Question: What about the “TNF-alpha Suppression” value ([2]; Dexamethasone 0.0 nM, Econazole 0.141 μM) of the same compound?
Answer: 14.11%

Question: What about the “TNF-alpha Suppression” value ([2]; Dexamethasone 0.0 nM, Econazole 0.281 μM) of the same compound?
Answer: 16.99%

Question: And the “TNF-alpha Suppression” value ([2]; Dexamethasone 0.0 nM, Econazole 1.124 μM)?
Answer: 38.71%

Question: What about the “TNF-alpha Suppression” value ([2]; Dexamethasone 0.0 nM, Econazole 2.249 μM) of the same compound?
Answer: 43.90%

Question: And the “TNF-alpha Suppression” value ([2]; Dexamethasone 0.0 nM, Econazole 4.497 μM)?
Answer: 53.07%

Question: What about the “TNF-alpha Suppression” value ([2]; Dexamethasone 0.0 nM, Econazole 8.995 μM) of the same compound?
Answer: 70.06%

Question: For `CC(=O)OCC(=O)[C@@]1(OC(C)=O)[C@@H](C)C[C@H]2[C@@H]3C[C@H](F)C4=CC(=O)C=C[C@]4(C)[C@@]3(F)[C@@H](O)C[C@@]21C` [Diflorasone, diflorasone], which “TNF-alpha Suppression” value ([2]; Diflorasone 0.5 nM, Clotrimazole 0.000 μM) is on record?
Answer: 9.84%

Question: And the “TNF-alpha Suppression” value ([2]; Diflorasone 0.9 nM, Clotrimazole 0.000 μM)?
Answer: 16.12%

Question: What about the “TNF-alpha Suppression” value ([2]; Diflorasone 1.9 nM, Clotrimazole 0.000 μM) of the same compound?
Answer: 21.93%

Question: What about the “TNF-alpha Suppression” value ([2]; Diflorasone 3.8 nM, Clotrimazole 0.000 μM) of the same compound?
Answer: 29.01%

Question: And the “TNF-alpha Suppression” value ([2]; Diflorasone 7.5 nM, Clotrimazole 0.000 μM)?
Answer: 36.86%

Question: And the “TNF-alpha Suppression” value ([2]; Diflorasone 15.0 nM, Clotrimazole 0.000 μM)?
Answer: 41.37%

Question: And the “TNF-alpha Suppression” value ([2]; Diflorasone 30.0 nM, Clotrimazole 0.000 μM)?
Answer: 49.96%

Question: And the “TNF-alpha Suppression” value ([2]; Diflorasone 60.0 nM, Clotrimazole 0.000 μM)?
Answer: 48.95%

Question: And the “TNF-alpha Suppression” value ([2]; Diflorasone 120.0 nM, Clotrimazole 0.000 μM)?
Answer: 47.05%

Question: And the “TNF-α inhibition achievable by steroid alone” value ([2]; diflorasone alone)?
Answer: 47%

Question: What about the “suppression of TNF-α secretion” value ([2]; single agent concentration of 3.8 nM, P/I stimulated PBMCs) of the same compound?
Answer: 29%
